Experiment: photochromic response on an optical bench in ethyl cellulose resin (lambda max, sensitivity, saturation optical density, bleach rate)
Assay type: physicochemical
Settings: for Δ OD @ SAT (saturation optical density): UV exposure 15 minutes; for Δ OD @ SAT (saturation optical density) / Sensitivity Δ OD/MIN / Bleach rate T 1/2: ethyl cellulose resin; for Lambda max Band A / Lambda max Band B: activated (colored) form, in ethyl cellulose resin; for Sensitivity Δ OD/MIN: first five (5) seconds of UV exposure, expressed on a per minute basis, 75° F. (23.9° C.); for Bleach rate T 1/2: time to one half the highest absorbance at room temperature (72° F., 22.2° C.) after removal of activating light; for sensitivity versus Comparative Examples (in words): comparison of Table 1 results
Experimental: The photochromic compounds prepared in the Examples and the Comparative Examples were incorporated into an ethyl cellulose resin by the following procedure. About 30 milligrams of the photochromic compound was added to 2.0 grams of a 10 weight percent ethyl cellulose solution in toluene. The photochromic compound was dissolved by warming and stirring on a steam bath. Approximately 2.0 grams of the resultant solution was deposited on the edge of a 75 by 25 millimeter (mm) glass slide. Using a draw down bar, a 0.2 mm layer of photochromic resin solution was placed evenly on the slide and permitted to dry.
The photochromic test samples prepared in Part A were tested for photochromic response rates on an optical bench. Prior to testing on the optical bench, the photochromic test samples were exposed to 365 nanometer (nm) ultraviolet light for about 15 minutes to activate the photochromic compounds and then placed into a 76° C. oven for about 15 minutes to bleach or inactivate the photochromic compounds. The test samples were then cooled to room temperature, exposed to fluorescent room lighting for at least 2 hours and then kept covered for at least 2 hours prior to testing on an optical bench maintained at 75° F. (23.9° C.).
The optical bench comprises a 150 watt Xenon arc lamp, a tungsten lamp, power supplies for both lamps, condensing lenses as needed to maintain collimated light beams from both lamps, a remote controlled shutter, a copper sulfate bath acting as a heat sink for the arc lamp, a Schott WG-320 nm cut-off filter which removes short wavelength radiation, neutral density filter(s), a sample holder in which the sample to be tested is inserted, a photopic filter, light detector, and radiometer assembly, a strip chart recorder, and a means for maintaining the alignment of the aforestated components during testing.
Change in optical density (ΔOD) of a sample was determined by inserting a photochromic test sample in the bleached state into the sample holder, adjusting the transmittance scale to 100%, opening the shutter from the Xenon lamp to provide ultraviolet radiation to change the sample from the bleached state to an activated (darkened) state, measuring the transmittance through the sample. The transmittance was measured by directing a beam of light from the tungsten lamp at a small angle normal to the surface of the sample, through the sample, and to a photopic filter, light detector and radiometer assembly. The photopic filter passes wavelengths such that the detector mimics the response of the human eye and produces output signals that are processed by the radiometer. The change in optical density was calculated according to the formula Δ OD=log(100/% Ta) where % Ta is the percent transmittance in the activated state and the logarithm is to the base 10.
The Δ OD/Min, which represents the sensitivity of the photochromic compound's response to UV light, was measured over the first five (5) seconds of UV exposure, then expressed on a per minute basis. The saturation optical density (OD) was taken under identical conditions as the Δ OD/Min, except UV exposure was continued for 15 minutes. The lambda max value, which is the maximum absorption of the activated (colored) form of the photochromic compound in ethyl cellulose resin, may occur at one or two wavelengths reported as Band A and Band B in Table 1. The Bleach Rate T 1/2 is the time interval in seconds for the absorbance of the activated form of the benzopyran in the test sample to reach one half the highest absorbance at room temperature (72° F., 22.2° C.) after removal of the source of activating light.

Row | Compound | Δ OD @ SAT (saturation optical density) | Lambda max Band A | Sensitivity Δ OD/MIN [OD/MIN] | Bleach rate T 1/2 [min] | Lambda max Band B | sensitivity versus Comparative Examples (in words)
1 | 3-(2-fluorophenyl)-3-(benzofur-2-yl)-3H-benzo(b)thieno[3,2-f]-1-benzopyran [Example 7] | 0.27 | 482 | 0.27 | 10.3 | – | –
2 | C1=CC(c2ccccc2)(c2ccccc2)Oc2ccc3ccccc3c21 [Comparative Example 1, 3,3-diphenyl-3H-naphtho [2,1-b]pyran, reference compound] | 0.31 | 432 | 0.87 | 0.533 | – | –
3 | C1=CC(c2ccccc2)(c2ccccc2)Oc2ccc3oc4ccccc4c3c21 [Comparative Example 2, 3,3-diphenyl-(3H)-benzo(b)furo[3,2-f]-1-benzopyran, reference compound] | 0.18 | 430 | 0.42 | 1.42 | 522 | –
4 | C1=CC(c2ccccc2)(c2cc3ccccc3o2)Oc2ccc3ccccc3c21 (stereo not drawn) [Example 1, 3-phenyl-3-(benzofur-2-yl)-3H-naphtho[2,1-b]pyran] | 0.95 | 467 | 1.15 | 5.75 | – | greater than Comparative Examples 1 and 2
5 | Fc1ccccc1C1(c2cc3ccccc3o2)C=Cc2c(ccc3ccccc23)O1 (stereo not drawn) [Example 2, 3-(2-fluorophenyl)-3-(benzofur-2-yl)-3H-naphtho[2,1-b]pyran] | 0.84 | 462 | 0.59 | > 30 | – | greater than Comparative Example 2
6 | C1=CC(c2ccccc2)(c2cc3ccccc3s2)Oc2ccc3ccccc3c21 (stereo not drawn) [Example 3, 3-phenyl-3-(benzothiophen-2-yl)-3H-naphtho[2,1-b]pyran] | 0.52 | 460 | 0.76 | 2.03 | – | greater than Comparative Example 2
7 | C1=CC(c2ccccc2)(c2cc3ccccc3o2)Oc2ccc3oc4ccccc4c3c21 (stereo not drawn) [Example 4, 3-phenyl-3-(benzofur-2-yl)-3H-benzo(b)furo[3,2-f]-1-benzopyran] | 0.34 | 453 | 0.26 | 5.18 | 482 | –
8 | C1=CC(c2ccccc2)(c2csc3ccccc23)Oc2ccc3ccccc3c21 (stereo not drawn) [Example 5, 3-phenyl-3-(benzothiophen-3-yl)-3H-naphtho[2,1-b]pyran] | 0.34 | 440 | 0.62 | 1.55 | – | greater than Comparative Example 2
9 | COc1ccccc1C1(c2cc3ccccc3o2)C=Cc2cc3oc4ccccc4c3cc2O1 (stereo not drawn) [Example 6, 2-(2-methoxyphenyl)-2-(benzofur-2-yl)-2H-benzo(b)furo[2,3-g]-benzopyran] | 0.86 | 448 | 0.49 | > 20 | 507 | greater than Comparative Example 2
10 | C1=CC(c2ccccc2)(c2cc3ccccc3s2)Oc2ccc3oc4ccccc4c3c21 (stereo not drawn) [Example 8, 3-phenyl-3-(benzothiophen-2-yl)-3H-benzo(b)furo[3,2-f]-1-benzopyran] | 0.23 | 476 | 0.25 | 3.77 | 545 | –
11 | C1=CC(c2ccccc2)(c2csc3ccccc23)Oc2ccc3oc4ccccc4c3c21 (stereo not drawn) [Example 9, 3-phenyl-3-(benzothiophen-3-yl)-3H-benzo(b)furo[3,2-f]-1-benzopyran] | 0.18 | 444 | 0.22 | 2.97 | 515 | –
12 | COc1ccccc1C1(c2cc3ccccc3o2)C=Cc2c(ccc3sc4ccccc4c23)O1 (stereo not drawn) [Example 10, 3-(2-methoxyphenyl)-3-(benzofur-2-yl)-3H-benzo(b)thieno[3,2-f]-1-benzopyran] | 0.98 | 482 | 0.66 | > 20 | 532 | greater than Comparative Example 2

Reference: patent publication US5429774A, “Benzopyran compounds” (Transitions Optical, Inc., priority 1994, dated 1995)
